According to patent US9273046B2, “Fused tricyclic compounds as Raf kinase inhibitors” (BeiGene, LTD., priority 2011, dated 2016):
Like-named read-outs stand apart in the source and are kept apart here.

Experiments:
B-Raf (V600E) = B-Raf (V600E) (Homo sapiens (Human), UniProt P15056, V600E); assay: Raf IC50 assay, time-resolved fluorescence energy transfer (TR-FRET), B-Raf; type: biochemical
Protocol: The enzyme was incubated with the compounds at room temperature for 60 minutes and the reactions were initiated by the addition of ATP and GST-MEK1. […] Plates were sealed and incubated at room temperature for 2 hours, and then the TR-FRET signals were read on BMG PHERAstar FS instrument. The IC50 for each compound was calculated by non linear regression by Graphpad Prism software.

C-Raf (Y340D/Y341D) = C-Raf (Y340D/Y341D) (Homo sapiens (Human), UniProt P04049, Y340D/Y341D); assay: Raf IC50 assay, time-resolved fluorescence energy transfer (TR-FRET), C-Raf; type: biochemical; details: 0.5 nM C-Raf, 0.1 mM ATP, GST-tagged MEK1 substrate, 60 min preincubation
C-Raf (Y340D/Y341D), sequence (P04049 whole entry Y340D/Y341D): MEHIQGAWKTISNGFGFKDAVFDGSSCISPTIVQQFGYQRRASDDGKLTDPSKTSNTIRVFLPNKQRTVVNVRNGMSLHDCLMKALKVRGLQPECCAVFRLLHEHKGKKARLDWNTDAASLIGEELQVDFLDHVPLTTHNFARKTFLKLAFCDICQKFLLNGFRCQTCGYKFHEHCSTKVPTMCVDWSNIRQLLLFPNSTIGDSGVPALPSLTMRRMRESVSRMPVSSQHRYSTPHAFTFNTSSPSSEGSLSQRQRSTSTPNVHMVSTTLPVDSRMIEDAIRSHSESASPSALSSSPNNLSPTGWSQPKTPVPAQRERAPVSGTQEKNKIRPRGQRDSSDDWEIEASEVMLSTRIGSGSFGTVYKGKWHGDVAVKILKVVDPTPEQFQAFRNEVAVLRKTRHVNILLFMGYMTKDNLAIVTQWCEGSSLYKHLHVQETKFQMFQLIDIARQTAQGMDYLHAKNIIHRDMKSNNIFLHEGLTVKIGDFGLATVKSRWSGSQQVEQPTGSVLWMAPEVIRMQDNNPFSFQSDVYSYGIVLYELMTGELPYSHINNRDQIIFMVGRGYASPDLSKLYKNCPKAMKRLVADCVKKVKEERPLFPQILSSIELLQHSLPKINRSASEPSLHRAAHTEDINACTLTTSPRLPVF
Protocol: The assay was carried out in reactions (10 μL) containing 0.0625 nM B-Raf or 0.5 nM C-Raf, 25 mM Tris pH7.4, 10 mM MgCl2, 0.5 mM EGTA, 0.5 mM […], 5 mM beta-glycerophosphate, 0.01% Triton X-100, 2.5 mM DTT, 0.1% BSA, 0.1 mM ATP, 13.7 nM GST-tagged MEK1 (Full-length protein with K97R mutation, recombinant protein purified from bacterial expression system) and 0-5 μM compounds disclosed herein (final concentration of 1% DMSO). The enzyme was incubated with the compounds at room temperature for 60 minutes and the reactions were initiated by the addition of ATP and GST-MEK1. After incubating at room temperature for 60 minutes, an equal volume of stop buffer containing 25 mM Tris pH7.4, 400 mM KF, 50 mM EDTA, 0.01% BSA, 0.01% Triton X-100, 1 test of Eu3+ Cryptate-conjugated rabbit polyclonal antibody anti-Phospho MEK1/2 (Ser217/221) and 1 test of d2-conjugated mouse monoclonal antibody anti-glutathione S-transferase was added to stop the reactions. Plates were sealed and incubated at room temperature for 2 hours, and then the TR-FRET signals were read on BMG PHERAstar FS instrument. The IC50 for each compound was calculated by non linear regression by Graphpad Prism software.

[1] = 0.0625 nM B-Raf, 0.1 mM ATP, GST-tagged MEK1 substrate, 60 min preincubation, read-out: B-Raf (V600E) IC50

B-Raf (V600E), sequence (P15056 whole entry V600E): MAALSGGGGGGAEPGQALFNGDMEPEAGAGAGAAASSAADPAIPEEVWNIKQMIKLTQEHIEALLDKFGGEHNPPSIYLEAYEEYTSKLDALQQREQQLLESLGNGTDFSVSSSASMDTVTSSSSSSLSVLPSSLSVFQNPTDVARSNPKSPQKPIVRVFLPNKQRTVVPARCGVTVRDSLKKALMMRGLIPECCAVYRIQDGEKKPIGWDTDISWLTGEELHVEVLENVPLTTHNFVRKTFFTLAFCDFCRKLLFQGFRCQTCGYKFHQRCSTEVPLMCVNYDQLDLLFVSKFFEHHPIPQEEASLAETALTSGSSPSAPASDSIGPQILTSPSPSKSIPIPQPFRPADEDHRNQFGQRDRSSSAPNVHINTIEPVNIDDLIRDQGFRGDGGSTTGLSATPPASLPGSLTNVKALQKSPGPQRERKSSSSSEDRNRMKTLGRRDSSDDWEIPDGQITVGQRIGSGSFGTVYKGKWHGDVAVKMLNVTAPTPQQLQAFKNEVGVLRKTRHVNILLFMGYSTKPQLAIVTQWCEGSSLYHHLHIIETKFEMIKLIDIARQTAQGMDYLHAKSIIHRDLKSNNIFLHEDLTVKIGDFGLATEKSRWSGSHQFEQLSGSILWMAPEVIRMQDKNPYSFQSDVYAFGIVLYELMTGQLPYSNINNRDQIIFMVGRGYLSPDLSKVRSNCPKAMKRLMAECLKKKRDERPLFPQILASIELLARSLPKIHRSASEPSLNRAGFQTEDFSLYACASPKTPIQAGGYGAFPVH

Work on O=C1CCc2c(Oc3ccc4c(c3)C3C(C4)C3c3nc4ccccc4[nH]3)ccnc2N1 (racemic) [Compound 1.1, (±)-exo-5-((1-(1H-benzo[d]imidazol-2-yl)-1,1a,6,6a-tetrahydrocyclopropa[a]inden-3-yl)oxy)-3,4-dihydro-1,8-naphthyridin-2(1H)-one] yielded an IC50 (B-Raf (V600E); [1]) of 11 nM.
Molecule O=C1CCc2c(Oc3ccc4c(c3)C3C(C4)C3c3nc4ccccc4s3)ccnc2N1 (racemic) [Compound 1.3, (±)-exo-5-((1-(benzo[d]thiazol-2-yl)-1,1a,6,6a-tetrahydrocyclopropa[a]inden-3-yl)oxy)-3,4-dihydro-1,8-naphthyridin-2(1H)-one] has an IC50 (C-Raf (Y340D/Y341D)) of 5.5 nM and an IC50 (B-Raf (V600E); [1]) of 88 nM.
Molecule O=C1CCc2c(Oc3ccc4c(c3)C3C(O4)C3c3nc4ccccc4[nH]3)ccnc2N1 (racemic) [Compound 2.1, (±)-exo-5-((1-(1H-benzo[d]imidazol-2-yl)-1a,6b-dihydro-1H-cyclopropa[b]benzofuran-5-yl)oxy)-3,4-dihydro-1,8-naphthyridin-2(1H)-one] has an IC50 (C-Raf (Y340D/Y341D)) of 0.3 nM and an IC50 (B-Raf (V600E); [1]) of 3.1 nM.
O=C1CCc2c(Oc3ccc4c(c3)C3C(O4)C3c3nc4ccc(O)cc4[nH]3)ccnc2N1 (racemic) [Compound 2.27, (±)-exo-5-((1-(6-hydroxy-1H-benzo[d]imidazol-2-yl)-1a,6b-dihydro-1H-cyclopropa[b]benzofuran-5-yl)oxy)-3,4-dihydro-1,8-naphthyridin-2(1H)-one] gave an IC50 (C-Raf (Y340D/Y341D)) of under 0.25 nM and an IC50 (B-Raf (V600E); [1]) of 2.5 nM.
O=C1CCc2c(Oc3ccc4c(c3)C3C(O4)C3c3nc(-c4ccccc4)no3)ccnc2N1 (racemic) [Compound 2.29, (±)-exo-5-((1-(3-phenyl-1,2,4-oxadiazol-5-yl)-1a,6b-dihydro-1H-cyclopropa[b]benzofuran-5-yl)oxy)-3,4-dihydro-1,8-naphthyridin-2(1H)-one] showed an IC50 (C-Raf (Y340D/Y341D)) of under 0.25 nM and an IC50 (B-Raf (V600E); [1]) of 3.2 nM.
O=C1CCc2c(Oc3ccc4c(c3)C3C(O4)C3c3nc(-c4ccccc4)c[nH]3)ccnc2N1 (racemic) [Compound 2.30, (±)-exo-5-((1-(4-phenyl-1H-imidazol-2-yl)-1a,6b-dihydro-1H-cyclopropa[b]benzofuran-5-yl)oxy)-3,4-dihydro-1,8-naphthyridin-2(1H)-one] was tested, and the IC50 (C-Raf (Y340D/Y341D)) was under 0.25 nM and the IC50 (B-Raf (V600E); [1]) was 0.72 nM.
O=C1CCc2c(Oc3ccc4c(c3)C3C(O4)C3c3nc4cc(C(F)(F)F)ccc4n3CCO)ccnc2N1 (racemic) [Compound 2.34, (±)-exo-5-((1-(1-(2-hydroxyethyl)-5-(trifluoromethyl)-1H-benzo[d]imidazol-2-yl)-1a,6b-dihydro-1H-cyclopropa[b]benzofuran-5-yl)oxy)-3,4-dihydro-1,8-naphthyridin-2(1H)-one] was tested, and the IC50 (B-Raf (V600E); [1]) was 30 nM.
For O=C1CCc2c(Oc3cc4c(cc3Cl)OC3C(c5nc6ccc(C(F)(F)F)cc6[nH]5)C43)ccnc2N1 (racemic) [Compound 2.36, (±)-exo-5-((4-chloro-1-(6-(trifluoromethyl)-1H-benzo[d]imidazol-2-yl)-1a,6b-dihydro-1H-cyclopropa[b]benzofuran-5-yl)oxy)-3,4-dihydro-1,8-naphthyridin-2(1H)-one], the IC50 (C-Raf (Y340D/Y341D)) was 32 nM and the IC50 (B-Raf (V600E); [1]) was 117 nM.
For CNC(=O)c1cc(Oc2ccc3c(c2)C2C(O3)C2c2nc3ccc(C(F)(F)F)cc3[nH]2)ccn1 (racemic) [Compound 3.1, (±)-exo-N-methyl-4-((1-(6-(trifluoromethyl)-1H-benzo[d]imidazol-2-yl)-1a,6b-dihydro-1H-cyclopropa[b]benzofuran-5-yl)oxy)picolinamide], the IC50 (C-Raf (Y340D/Y341D)) was 6.5 nM.
FC(F)(F)c1ccc2nc(C3C4Oc5ccc(Oc6ccncn6)cc5C43)[nH]c2c1 (racemic) [Compound 3.2, (±)-exo-2-(5-(pyrimidin-4-yloxy)-1a,6b-dihydro-1H-cyclopropa[b]benzofuran-1-yl)-6-(trifluoromethyl)-1H-benzo[d]imidazole] showed an IC50 (C-Raf (Y340D/Y341D)) of 223 nM.
In the case of FC(F)(F)c1ccc2nc(C3C4Oc5ccc(Oc6ccnc7[nH]ccc67)cc5C43)[nH]c2c1 (racemic) [Compound 3.3, (±)-exo-2-(5-((1H-pyrrolo[2,3-b]pyridin-4-yl)oxy)-1a,6b-dihydro-1H-cyclopropa[b]benzofuran-1-yl)-6-(trifluoromethyl)-1H-benzo[d]imidazole], the IC50 (C-Raf (Y340D/Y341D)) is reported as 104 nM and the IC50 (B-Raf (V600E); [1]) is reported as 522 nM.
FC(F)(F)c1ccc2nc(C3C4Oc5ccc(Oc6ccnc(-c7nc(C(F)(F)F)c[nH]7)c6)cc5C43)[nH]c2c1 (racemic) [Compound 3.4, (±)-exo-6-(trifluoromethyl)-2-(5-((2-(4-(trifluoromethyl)-1H-imidazol-2-yl)pyridin-4-yl)oxy)-1a,6b-dihydro-1H-cyclopropa[b]benzofuran-1-yl)-1H-benzo[d]imidazole] was tested, and the IC50 (C-Raf (Y340D/Y341D)) was 56 nM and the IC50 (B-Raf (V600E); [1]) was 291 nM.
For FC(F)(F)c1ccc2nc(C3C4Oc5ccc(Oc6ccncc6)cc5C43)[nH]c2c1 (racemic) [Compound 3.6, (±)-exo-2-(5-(pyridin-4-yloxy)-1a,6b-dihydro-1H-cyclopropa[b]benzofuran-1-yl)-6-(trifluoromethyl)-1H-benzo[d]imidazole], the IC50 (C-Raf (Y340D/Y341D)) was 86 nM and the IC50 (B-Raf (V600E); [1]) was 518 nM.
O=C1Nc2nccc(Oc3ccc4c(c3)C3C(O4)C3c3nc4ccc(C(F)(F)F)cc4[nH]3)c2CO1 (racemic) [Compound 3.7, (±)-exo-5-((1-(6-(trifluoromethyl)-1H-benzo[d]imidazol-2-yl)-1a,6b-dihydro-1H-cyclopropa[b]benzofuran-5-yl)oxy)-1H-pyrido[2,3-d][1,3]oxazin-2(4H)-one] gave an IC50 (C-Raf (Y340D/Y341D)) of 3.2 nM and an IC50 (B-Raf (V600E); [1]) of 26 nM.
O=C1CCc2c(Oc3ccc4c(c3)C3C(C4)C3C(=O)O)ccnc2N1 (racemic) [Intermediate I, (±)-exo-3-((7-Oxo-5,6,7,8-tetrahydro-1,8-naphthyridin-4-yl)oxy)-1,1a,6,6a-tetrahydrocyclopropa[a]indene-1-carboxylic acid] was tested, and the IC50 (C-Raf (Y340D/Y341D)) was over 5000 nM and the IC50 (B-Raf (V600E)) was over 5000 nM.
O=C1CCc2c(Oc3ccc4c(c3)C3C(O4)C3C(=O)O)ccnc2N1 (racemic) [Intermediate II, (±)-exo-5-((7-Oxo-5,6,7,8-tetrahydro-1,8-naphthyridin-4-yl)oxy)-1a,6b-dihydro-1H-cyclopropa[b]benzofuran-1-carboxylic acid] gave an IC50 (C-Raf (Y340D/Y341D)) of 2910 nM and an IC50 (B-Raf (V600E)) of over 5000 nM.
Molecule O=C1CCc2c(Oc3ccc4c(c3)[C@H]3[C@@H](O4)[C@@H]3c3nc4ccc(C(F)(F)F)cc4[nH]3)ccnc2N1 [Compound 2.2a] has an IC50 (C-Raf (Y340D/Y341D)) of 1.2 nM and an IC50 (B-Raf (V600E); [1]) of 6.7 nM.
O=C1CCc2c(Oc3ccc4c(c3)[C@@H]3[C@H](O4)[C@H]3c3nc4ccc(C(F)(F)F)cc4[nH]3)ccnc2N1 [Compound 2.2b, 5-(((1R,1aS,6bR)-1-(6-(trifluoromethyl)-1H-benzo[d]imidazol-2-yl)-1a,6b-dihydro-1H-cyclopropa[b]benzofuran-5-yl)oxy)-3,4-dihydro-1,8-naphthyridin-2(1H)-one] was tested, and the IC50 (C-Raf (Y340D/Y341D)) was 8.8 nM and the IC50 (B-Raf (V600E); [1]) was 53 nM.
Cc1cc2[nH]c([C@@H]3[C@H]4Oc5ccc(Oc6ccnc7c6CCC(=O)N7)cc5[C@H]43)nc2cc1F [Compound 2.4a] was tested, and the IC50 (C-Raf (Y340D/Y341D)) was 0.54 nM.
Molecule O=C1CCc2c(Oc3ccc4c(c3)[C@@H]3[C@H](O4)[C@H]3c3nc4cc(Cl)c(C(F)(F)F)cc4[nH]3)ccnc2N1 [Compound 2.5a] has an IC50 (C-Raf (Y340D/Y341D)) of 21 nM.
O=C1CCc2c(Oc3ccc4c(c3)[C@H]3[C@@H](O4)[C@@H]3c3nc4cc(Cl)c(C(F)(F)F)cc4[nH]3)ccnc2N1 [Compound 2.5b] gave an IC50 (C-Raf (Y340D/Y341D)) of 2.5 nM.
O=C1CCc2c(Oc3ccc4c(c3)C3C(O4)C3c3nc4cc5c(cc4[nH]3)CCC5)ccnc2N1 (stereo not drawn) [Compound 2.21] showed an IC50 (B-Raf (V600E); [1]) of 1.2 nM.
